The source of these data is ChEMBL document CHEMBL1201862, “PubChem BioAssay data set” (2004).

What all share (format): functional
The target in assay [1] is T1, Sentrin-specific protease 8 (Homo sapiens, UniProt Q96LD8).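 Further: luminescence read-out of SENP8 inhibition, dose-response confirmation following an ultra-high-throughput screen.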
T1 sequence (Q96LD8 whole entry): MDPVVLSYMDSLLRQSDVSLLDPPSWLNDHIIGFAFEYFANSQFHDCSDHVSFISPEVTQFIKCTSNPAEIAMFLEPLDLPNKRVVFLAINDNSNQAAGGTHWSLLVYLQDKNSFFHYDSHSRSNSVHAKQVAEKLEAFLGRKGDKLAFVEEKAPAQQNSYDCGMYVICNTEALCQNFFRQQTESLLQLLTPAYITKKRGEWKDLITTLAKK

Assay [2] addresses T2, Sentrin-specific protease 7 (Homo sapiens, UniProt Q9BQF6).
T2 sequence (Q9BQF6 whole entry): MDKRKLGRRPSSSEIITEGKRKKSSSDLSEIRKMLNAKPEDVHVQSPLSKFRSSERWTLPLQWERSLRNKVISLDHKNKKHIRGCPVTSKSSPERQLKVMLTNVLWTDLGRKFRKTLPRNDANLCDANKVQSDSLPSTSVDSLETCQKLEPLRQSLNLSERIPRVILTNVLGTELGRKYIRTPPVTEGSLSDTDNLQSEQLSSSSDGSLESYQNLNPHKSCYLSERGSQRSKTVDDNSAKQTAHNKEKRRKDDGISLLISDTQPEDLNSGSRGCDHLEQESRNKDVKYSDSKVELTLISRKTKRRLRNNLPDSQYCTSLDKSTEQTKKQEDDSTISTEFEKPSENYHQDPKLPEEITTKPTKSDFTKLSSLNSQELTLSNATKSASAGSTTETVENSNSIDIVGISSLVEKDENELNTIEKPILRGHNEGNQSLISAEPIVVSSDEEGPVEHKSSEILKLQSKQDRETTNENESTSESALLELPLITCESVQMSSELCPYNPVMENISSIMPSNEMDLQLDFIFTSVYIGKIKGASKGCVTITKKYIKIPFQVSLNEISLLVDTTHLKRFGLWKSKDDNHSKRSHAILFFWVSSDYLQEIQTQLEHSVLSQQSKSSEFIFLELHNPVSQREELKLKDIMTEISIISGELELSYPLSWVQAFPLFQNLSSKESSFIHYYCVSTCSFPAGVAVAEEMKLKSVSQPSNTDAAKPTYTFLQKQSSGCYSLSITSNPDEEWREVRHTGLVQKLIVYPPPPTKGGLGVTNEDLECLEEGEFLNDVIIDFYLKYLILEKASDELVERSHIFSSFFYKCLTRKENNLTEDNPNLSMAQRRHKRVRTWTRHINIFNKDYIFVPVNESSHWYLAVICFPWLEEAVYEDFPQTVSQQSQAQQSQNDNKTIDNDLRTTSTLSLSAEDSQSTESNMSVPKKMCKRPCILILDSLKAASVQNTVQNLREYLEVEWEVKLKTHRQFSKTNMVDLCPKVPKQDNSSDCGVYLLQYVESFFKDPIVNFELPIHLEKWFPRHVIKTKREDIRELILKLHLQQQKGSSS

The target in the next assay is T3, Protein RecA (Mycobacterium tuberculosis, UniProt P9WHJ3).
T3 sequence (P9WHJ3 whole entry): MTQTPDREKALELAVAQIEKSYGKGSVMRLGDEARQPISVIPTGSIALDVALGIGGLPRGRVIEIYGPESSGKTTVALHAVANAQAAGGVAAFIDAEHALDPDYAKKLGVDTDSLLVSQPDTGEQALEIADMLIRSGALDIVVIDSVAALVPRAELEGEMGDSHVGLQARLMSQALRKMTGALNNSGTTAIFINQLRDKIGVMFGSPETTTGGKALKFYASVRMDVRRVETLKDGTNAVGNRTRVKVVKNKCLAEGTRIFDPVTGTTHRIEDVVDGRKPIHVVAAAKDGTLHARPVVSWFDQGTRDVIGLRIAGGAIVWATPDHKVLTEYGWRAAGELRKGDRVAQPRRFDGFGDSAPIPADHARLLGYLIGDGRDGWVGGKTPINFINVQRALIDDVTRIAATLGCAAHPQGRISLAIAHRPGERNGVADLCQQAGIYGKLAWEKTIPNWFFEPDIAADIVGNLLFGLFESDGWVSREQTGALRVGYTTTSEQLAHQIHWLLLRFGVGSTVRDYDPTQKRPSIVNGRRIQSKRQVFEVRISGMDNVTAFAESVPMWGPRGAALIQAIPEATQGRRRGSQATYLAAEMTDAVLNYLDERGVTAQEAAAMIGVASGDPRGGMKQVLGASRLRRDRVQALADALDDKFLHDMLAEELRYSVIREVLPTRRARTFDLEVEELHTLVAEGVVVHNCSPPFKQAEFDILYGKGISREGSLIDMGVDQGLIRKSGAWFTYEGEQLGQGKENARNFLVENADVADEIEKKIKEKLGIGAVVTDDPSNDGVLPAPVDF
The experiment in a line: Fluorescence Cell-Free Homogeneous Dose Retest to Identify Inhibitors of RecA-Intein Splicing Activity. [Related pubchem assays (depositor defined):AID2097, AID2223, AID489010, AID492950].

Assay [3] concerns the target T4, Replicative DNA helicase DnaB (Mycobacterium tuberculosis, UniProt P9WMR3).
T4 sequence (P9WMR3 whole entry): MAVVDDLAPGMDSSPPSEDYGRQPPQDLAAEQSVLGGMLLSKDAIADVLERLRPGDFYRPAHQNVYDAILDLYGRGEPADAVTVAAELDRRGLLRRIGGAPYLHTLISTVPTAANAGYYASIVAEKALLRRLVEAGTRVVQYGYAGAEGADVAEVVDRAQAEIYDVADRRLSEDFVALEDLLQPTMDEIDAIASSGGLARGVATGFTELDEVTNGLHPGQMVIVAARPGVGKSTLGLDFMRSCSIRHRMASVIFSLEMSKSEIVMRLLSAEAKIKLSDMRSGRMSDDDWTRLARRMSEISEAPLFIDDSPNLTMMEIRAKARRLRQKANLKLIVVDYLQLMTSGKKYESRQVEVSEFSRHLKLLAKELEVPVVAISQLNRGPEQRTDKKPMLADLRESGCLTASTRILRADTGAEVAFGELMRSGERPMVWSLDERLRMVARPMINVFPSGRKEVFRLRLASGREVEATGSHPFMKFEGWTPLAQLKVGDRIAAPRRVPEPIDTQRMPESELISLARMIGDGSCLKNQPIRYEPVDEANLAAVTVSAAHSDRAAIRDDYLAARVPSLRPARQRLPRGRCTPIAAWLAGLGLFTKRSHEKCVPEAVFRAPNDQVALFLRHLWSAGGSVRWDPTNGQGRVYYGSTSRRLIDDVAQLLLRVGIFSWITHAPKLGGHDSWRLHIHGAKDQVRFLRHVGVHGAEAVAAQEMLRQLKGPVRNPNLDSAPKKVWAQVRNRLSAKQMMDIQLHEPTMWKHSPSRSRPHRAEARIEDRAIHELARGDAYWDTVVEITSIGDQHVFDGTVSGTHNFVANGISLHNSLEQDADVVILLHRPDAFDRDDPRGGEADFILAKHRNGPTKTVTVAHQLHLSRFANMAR
Briefly: DnaB intein splicing inhibitors, dose response, biochemical, cell-free fluorescence (AID 449749).

The source made the active and inactive calls.

The IC50 is the concentration at which inhibition is half-maximal. In general, EC50 refers to the concentration giving half of the maximal effect. As a reminder, the AC50 is the concentration at which the activity in the assay is half-maximal.

As to `c1ccc2c(Nc3nnc(-c4ccncc4)s3)cccc2c1`, the IC50 in assay [1] was > 100 µM (inactive); in assay [2] it was 5.51 µM (active).

Consider `COc1cc(C(=O)c2nccc3cc(OC)c(OC)cc23)c([N+](=O)[O-])cc1OC`, for which the 50% inhibitory concentration (IC50) in assay [1] was 4.97 µM (active); in assay [2] it was 2.93 µM (active). The concentration for a half-maximal effect (EC50) on Protein RecA was 0.16 µM (active). The AC50 in assay [3] was 0.273 µM (active).

Turning to `N#Cc1c(O)nc(SCC(=O)N2c3ccccc3Sc3ccccc32)nc1-c1ccccc1`, the EC50 at Protein RecA was 9.18 µM (active). Further, the half-maximal activity concentration (AC50) in assay [3] was 2.41 µM (active).
